Reference: publication PMC8348403 (Molecules, 2021)
Read-outs that look alike come from different tables or passages of the source. Each block holds one compound with its values, some of them ahead of it.

What was measured:
lung tissue = test system: lung tissue; set-up: method as in PMID 26148346; conditions: treated mice; cited from earlier work
[1] = set-up: method as in PMID 19107952; conditions: administration during pregnancy; cited from earlier work
[2] = set-up: method as in PMID 23190017, PMID 20371637; conditions: human intestinal microsomes; in vitro and in humans; cited from earlier work
[3] = test system: collagen-induced arthritis; set-up: method as in PMID 17537677; conditions: rodents; cited from earlier work
[4] = type: in vitro ADME; conditions: rat
Protocol: Short-term stability was evaluated at 22–25 °C for 6 h, which represented the processing time. Autosampler stability at ambient temperature for 24 h, long-term stability (−80 °C for 6 weeks), and three cycles of thaw and freeze (−80 and 25 °C) were evaluated. The actual concentrations of QCs samples (LQC, MQC, and HQC) under the stability test condition were compared against freshly prepared samples. Moreover, stock solution and working solution stability was evaluated at refrigerator temperature (4 °C) for 2 weeks.

[5] = Pharmacokinetic study of tamatinib in rats after oral fostamatinib (UPLC-MS/MS of plasma); type: in vivo, Wistar male rats
Protocol: The analysis was performed on Waters® Acquity H-Class UPLC® tandem triple quadrupole mass spectrometer (TQD) (Waters, Milford, USA). The H-Class UPLC® system contained Acquity sample manager and Acquity quaternary solvent manager. TQD was equipped with electrospray ionization (ESI) probe. Samples were detected and quantified in multiple reaction monitoring (MRM) mode. […] Mobile phase composition was 10 mM ammonium acetate and acetonitrile (10:90). The mobile phase was adjusted at 0.25 mL/min. […] Samples were vortex-mixed for 30 s, and 1 mL of MTBE was added. All samples were vortex-mixed for 1 min, then centrifuged at 8 °C for 10 min at 4500 g. After centrifugation, the upper layer was transferred to 2 mL tubes and dried using a vacuum concentrator at 40 °C. The residue was reconstituted with 100 µL of the mobile phase and a volume of 5 µL was injected into the UPLC–MS/MS. Eight Wistar male rats weighing 210 ± 20 g (aged about 2 months) were provided by National Organization for Drug Control and Research, Cairo, Egypt. Rats were placed in cages in optimum conditions of humidity (40–60%) and temperature (22–26 °C) with regular 12 h day-night cycle. No diet was available for animals for 10 h prior and 1 h post drug administration. Water was available ad libitum. Rats were administered orally (using the gavage technique) 12.5 mg/kg (the middle dose used in the work of Clemens et al.) fostamatinib as a suspension in 1% sodium carboxymethylcellulose. Under light anesthesia, blood samples (0.3 mL) were collected from orbital sinus, in heparinized tube, at different time points; 0, 0.5, 1.0, 2.0, 3.0, 4.0, 6.0, 8.0, 12.0, 24.0, and 48.0 h after drug administration. Plasma samples were obtained by centrifugation at 3000 g for 3 min and kept frozen at −80 °C until analysis. Non-compartmental analysis with the trapezoidal rule was used for estimation of pharmacokinetic parameters. These parameters were calculated using WinNonlin software (Pharsight Co., Mountain View, CA, USA).

[6] = test system: experimental nephrotoxic nephritis; set-up: method as in PMID 19959716; conditions: rats; cited from earlier work
[7] = male, Wistar, rat, plasma, po, 12.5 mg/kg

SMILES: COc1cc(Nc2ncc(F)c(Nc3ccc4c(n3)N(COP(=O)(O)O)C(=O)C(C)(C)O4)n2)cc(OC)c1OC [fostamatinib, Fostamatinib sodium]
fibrosis and inflammation in lung tissue (lung tissue): less fibrosis and inflammation in lung tissue
developmental toxicity [1]: caused urogenital and cardiovascular abnormalities
transformation to tamatinib [2]: rapidly transformed to tamatinib

Accuracy ([4]; 0.3 ng/mL): 90.0%
Measured Concentration ([4]; 0.3 ng/mL): 0.27 ± 0.01 ng/mL
Accuracy ([4]; 75 ng/mL): 89.9%
Measured Concentration ([4]; 75 ng/mL): 67.40 ± 2.79 ng/mL
Accuracy ([4]; 750 ng/mL): 86.6%
Measured Concentration ([4]; 750 ng/mL): 649.20 ± 69.95 ng/mL
Accuracy ([4]; 6 weeks, 0.3 ng/mL): 86.7%
Measured Concentration ([4]; 6 weeks, 0.3 ng/mL): 0.26 ± 0.02 ng/mL
Accuracy ([4]; 6 weeks, 75 ng/mL): 88.1%
Measured Concentration ([4]; 6 weeks, 75 ng/mL): 66.10 ± 7.77 ng/mL
Accuracy ([4]; 6 weeks, 750 ng/mL): 85.4%
Measured Concentration ([4]; 6 weeks, 750 ng/mL): 640.60 ± 73.94 ng/mL
Accuracy ([4]; 6 h, 0.3 ng/mL): 86.7%
Measured Concentration ([4]; 6 h, 0.3 ng/mL): 0.26 ± 0.03 ng/mL
Accuracy ([4]; 6 h, 75 ng/mL): 86.2%
Measured Concentration ([4]; 6 h, 75 ng/mL): 64.65 ± 3.47 ng/mL
Accuracy ([4]; 6 h, 750 ng/mL): 85.3%
Measured Concentration ([4]; 6 h, 750 ng/mL): 640.10 ± 43.19 ng/mL
Accuracy ([4]; 24 h, 0.3 ng/mL): 86.7%
Measured Concentration ([4]; 24 h, 0.3 ng/mL): 0.26 ± 0.02 ng/mL
Accuracy ([4]; 24 h, 75 ng/mL): 85.3%
Measured Concentration ([4]; 24 h, 75 ng/mL): 64.00 ± 5.11 ng/mL
Accuracy ([4]; 24 h, 750 ng/mL): 87.2%
Measured Concentration ([4]; 24 h, 750 ng/mL): 654.34 ± 97.10 ng/mL
AUC(0-inf) [5, 7]: 6420 ± 1500 ng·h/mL
Cmax [5, 7]: 653 ± 70.4 ng/mL
MRT [5, 7]: 19.8 ± 2.9 h
Tmax [5, 7]: 3 h
half-life [5, 7]: 18.3 ± 0.9 h
AUC(0-t) ([5]; male, Wistar, rat, plasma, po, 12.5 mg/kg, read-out: AUC0–48): 5640 ± 1210 ng·h/mL
Clearance ([5]; tamatinib in plasma, oral fostamatinib 12.5 mg/kg, rats, mean ± SD): 0.030 ± 0.001 L/h
SMILES: COc1cc(Nc2ncc(F)c(Nc3ccc4c(n3)NC(=O)C(C)(C)O4)n2)cc(OC)c1OC [Tamatinib, tamatinib]
effect in collagen-induced arthritis [3]: progressive improvement in histopathology, clinical scores, and joint radiography
effect in experimental nephrotoxic nephritis [6]: reduced glomerular macrophage infiltration, tissue injury, and proteinuria
